The record followed here is patent publication US9403866B2, “Compositions and methods for increasing telomerase activity” (Telomerase Activation Sciences, Inc., priority 2009, dated 2016).

Read-outs that look alike come from different tables or passages of the source.

Data set [1] in a line: Plasma levels and bioavailability in mice. The data set is classed as in vivo, male C57BL/6 mice. Particulars: male, C57BL/6, mouse, 10 mg/kg, 2% EtOH/98% water, read-out: Bioavailability % F. The method, then:
The plasma levels of a compound following a single intravenous, oral, intra-peritoneal, or sub-cutaneous administration in male C57BL/6 mice was determined. Plasma samples were collected and used to determine the plasma concentration of the compound and metabolites. In addition tissue samples, including whisker samples, and peripheral blood mononuclear cells (PBMC) cells were collected for telomerase activity analysis.
[…] mice were divided into treatment groups. The mice were provided ad libitum SLAC-MO1 #W080208 (Shanghai Laboratories Animal Center, Shanghai, China) throughout the in-life portion of the study with the exception of the overnight fasting period prior to oral dosing. Water was available ad libitum.
Body weights were taken on the day of dose administration. Dose volume was determined based on individual body weight taken on day of dosing.
Blood samples (approximately 300 μL) were collected via cardiac puncture or via retro-orbital puncture after anesthesia into tubes containing K2-EDTA anticoagulant and 1 mg/ml NaF at the various time points after dosing. Blood was stored on ice and then plasma separated via centrifugation (8000 rpm×6 minutes). The plasma was stored at […] until LC-MS/MS analysis.

Another data set deals with T1, telomerase (Mus musculus, UniProt O70372).
T1 construct: endogenous in cells; host or cells: lineage-depleted bone marrow cells, wild-type mice
T1 sequence (O70372 1-1122): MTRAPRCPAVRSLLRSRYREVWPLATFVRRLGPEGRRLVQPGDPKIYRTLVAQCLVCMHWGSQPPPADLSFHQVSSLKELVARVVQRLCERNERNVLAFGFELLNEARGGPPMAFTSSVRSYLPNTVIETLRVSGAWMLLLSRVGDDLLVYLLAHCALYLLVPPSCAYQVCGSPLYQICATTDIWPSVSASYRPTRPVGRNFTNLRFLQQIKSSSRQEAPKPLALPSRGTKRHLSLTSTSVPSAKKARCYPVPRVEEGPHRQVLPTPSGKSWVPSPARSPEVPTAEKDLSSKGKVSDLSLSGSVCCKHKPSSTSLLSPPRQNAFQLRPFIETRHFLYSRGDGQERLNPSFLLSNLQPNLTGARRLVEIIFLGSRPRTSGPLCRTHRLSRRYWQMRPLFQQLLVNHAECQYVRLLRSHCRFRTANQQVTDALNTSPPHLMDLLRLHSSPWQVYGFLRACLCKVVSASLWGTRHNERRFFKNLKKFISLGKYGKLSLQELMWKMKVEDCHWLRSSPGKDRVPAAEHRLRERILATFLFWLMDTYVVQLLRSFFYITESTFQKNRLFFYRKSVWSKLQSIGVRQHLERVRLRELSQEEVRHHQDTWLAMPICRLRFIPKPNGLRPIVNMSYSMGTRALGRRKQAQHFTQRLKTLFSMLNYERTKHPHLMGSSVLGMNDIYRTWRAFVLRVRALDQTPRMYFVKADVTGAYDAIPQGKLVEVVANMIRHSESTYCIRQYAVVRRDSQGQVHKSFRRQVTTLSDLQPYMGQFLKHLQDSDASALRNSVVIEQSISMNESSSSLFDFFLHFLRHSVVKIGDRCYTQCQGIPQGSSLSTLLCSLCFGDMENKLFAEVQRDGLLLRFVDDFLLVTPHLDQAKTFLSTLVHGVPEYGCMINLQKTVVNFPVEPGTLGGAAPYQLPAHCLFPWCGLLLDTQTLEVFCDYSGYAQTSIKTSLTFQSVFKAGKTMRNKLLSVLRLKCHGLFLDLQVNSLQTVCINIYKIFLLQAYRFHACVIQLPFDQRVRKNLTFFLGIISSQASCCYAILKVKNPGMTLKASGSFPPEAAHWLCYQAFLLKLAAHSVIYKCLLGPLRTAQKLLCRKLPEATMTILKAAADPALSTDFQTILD
Kind of data set: Telomerase activity in short-term liquid culture, lineage-depleted bone marrow cells from wild type mice. To be noted: 100 nM and 1 uM, three days. The data set is classed as cell-based. The method, then:
Lineage-depleted bone marrow cells from mTERT heterozygous and wild type mice were grown in IMDM+15% FBS containing stem cell factor (Kitl), IL-3, and IL-11 for three days in the presence of compound 4 (1 uM, 100 nM, or 10 nM), vehicle (0.1% DMSO), or nothing. Telomerase activity in the wild-type cells increased by 40-50% when treated with 100 nM and 1 uM compound 4, relative to the vehicle-treated control.

On to `CC(C)C(N)C(=O)OC1CCC23CC24CCC2(C)C(C5(C)CCC(C(C)(C)O)O5)C(O)CC2(C)C4CC(O)C3C1(C)C` (stereo not drawn) [Compound 4, 2-(L)-Amino-3-methyl-butyric acid 6α,16β-dihydroxy-17-[5-(1-hydroxy-1-methyl-ethyl)-2-methyl-tetrahydro-furan-2-yl]-4,4,13,14-tetramethyl-tetradecahydro-cyclopropa[9,10]cyclopenta[a]phenanthren-3β-yl ester], for which the bioavailability (as a rule, dose-corrected exposure relative to a reference, in per cent) in data set [1] (PO) is 48%; in data set [1] (SC) it was 66%. Moreover, the “Telomerase activity increase relative to the vehicle-treated control” value at telomerase was 40-50%.
